# PubChem BioAssay (NCI)
# Several values for one entry are separate records, joined by “and”; a condition that tells them apart may be missing. Equal entries are not always repeated.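 Grown in 96-well plates, cells were treated for 48 hours with each compound at five concentrations. Insufficient inhibition: endpoint recorded as highest concentration tested. GI50 is the concentration that inhibits growth by half. TGI is the concentration that stops growth completely.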
# Columns and labels:
# Assay in all cases: DTP human tumour cell line panel, 48 h
# U251 CNS = system: U251 CNS
# SN12C renal = system: SN12C renal
# MOLT-4 leukemia = system: MOLT-4 leukemia
# KM12 colon = system: KM12 colon
# COLO 205 colon = system: COLO 205 colon
# NCI-H23 lung = system: NCI-H23 lung
# DU-145 prostate = system: DU-145 prostate
Structure (SMILES),TGI (U251 CNS),TGI (SN12C renal),TGI (MOLT-4 leukemia),TGI (KM12 colon),TGI (COLO 205 colon),TGI (NCI-H23 lung),TGI (DU-145 prostate),GI50 (U251 CNS),GI50 (MOLT-4 leukemia),GI50 (DU-145 prostate),GI50 (KM12 colon),GI50 (COLO 205 colon),GI50 (SN12C renal),GI50 (NCI-H23 lung)
CCCCC(C(=O)C(=O)Nc1ccccc1CC)C(=O)C(C)C (configuration not stated),> 100 µM,> 100 µM,> 100 µM,> 100 µM,> 100 µM,> 100 µM,,,,,,,,
COc1ccc(C(C)Nc2cc(OC)c(OC)c(OC)c2)cc1 (configuration not stated),10 µM,> 100 µM,> 100 µM,> 100 µM,7.78 µM,> 39.6 µM,,,,,,,,
CC(C)CCCC(C)C1CCC2C3CC([N+](=O)[O-])=C4CC(O)CCC4(C)C3CCC12C (configuration not stated),30.4 µM,32.1 µM,88.2 µM,37 µM,45.7 µM,48.6 µM,,,,,,,,
ON1CCc2c([nH]c3ccccc23)C1c1ccc(Cl)cc1 (configuration not stated),29.8 µM,81 µM,79.7 µM,92.9 µM,80.8 µM,86.9 µM,,,,,,,,
COC1=CC(=O)C(O)=C(CC2(C)C(C)CCC3(C)C2CCCC3(C)C)C1=O (configuration not stated),13.8 µM,15.3 µM,18.5 µM,27.3 µM,19.2 µM,8.05 µM,,,,,,,,
CC(C)(C)c1ccc(OCCOCCOc2ccc(C(C)(C)C)cc2S(N)(=O)=O)c(S(N)(=O)=O)c1,> 100 µM,> 100 µM,28.7 µM,> 100 µM,> 100 µM,> 100 µM,,,,,,,,
CN(C)CCNC(=O)c1cccc2c1nc(-c1cccnc1)c1ccccc12,24 µM,35.4 µM,6.32 µM,46.5 µM,16.4 µM,15.9 µM,,,,,,,,
O=C(CC1(O)C(=O)Nc2c(Cl)ccc(Cl)c21)c1ccc(Cl)cc1 (configuration not stated),84.5 µM,34.1 µM,,78 µM,32.8 µM,46.5 µM,,,,,,,,
CC(C)(C)C1CCC(O)(c2ccccc2)CC1 (configuration not stated),> 100 µM and 32.3 µM,> 100 µM and 34.7 µM,> 100 µM and 39.5 µM,> 100 µM and 63.6 µM,> 100 µM and 31.7 µM,> 100 µM,,,,,,,,
CCC12C=C(C(=O)OC)N3c4ccccc4C4CCN(CCC1)C2C43 (configuration not stated),> 100 µM,> 100 µM,> 100 µM,> 100 µM,> 100 µM,> 100 µM,,,,,,,,
N#CC1(CCCCl)CCCCC1,> 100 µM,> 100 µM,> 100 µM,> 100 µM,> 100 µM,> 100 µM,,,,,,,,
O=[N+]([O-])c1ccc(/C=C/c2ccc(/C=C/c3ccc([N+](=O)[O-])cc3[N+](=O)[O-])cc2)c([N+](=O)[O-])c1,> 100 µM,,> 100 µM,> 100 µM,,> 100 µM,,,,,,,,
Cc1ccccc1NC(=O)C1C(=O)N(c2ccccc2C)C(=O)/C1=N\NC(N)=O (configuration not stated),> 100 µM,> 100 µM,> 100 µM,> 100 µM,> 100 µM,> 100 µM,,,,,,,,
O/N=C1/C(=C/c2ccc(OCc3ccccc3)cc2)CCCC1C(NO)c1ccc(OCc2ccccc2)cc1 (configuration not stated),33.4 µM,9.54 µM,> 100 µM,> 100 µM,> 100 µM,> 100 µM,,,,,,,,
N#Cc1c(CC(=O)O)cc(=O)n2c1[nH]c1ccccc12,> 100 µM,> 100 µM,> 100 µM,> 100 µM,> 100 µM,> 100 µM,,,,,,,,
O=C1c2ccccc2N1C(=O)c1ccccc1[N+](=O)[O-],> 100 µM,,> 100 µM,> 100 µM,> 100 µM,> 100 µM,> 100 µM,,,,,,,
O=C1Nc2ccc(Cl)cc2/C1=N/c1nc(-c2ccc(Cl)cc2)cs1,4.65 µM,,> 100 µM,4.55 µM,4.18 µM,,2.79 µM,1.7 µM,1.61 µM,1.42 µM,1.37 µM,1.69 µM,,
CNS(=O)(=O)NNS(=O)(=O)c1ccc(C)cc1,,> 100 µM,> 100 µM,> 100 µM,> 100 µM,> 100 µM,,,,,,,,
O=C1c2ccccc2C2(O)N(c3ccccc3)C(=S)N(c3ccccc3)C12O (configuration not stated),> 100 µM,> 100 µM,> 100 µM,> 100 µM,> 100 µM,> 100 µM,,,,,,,,
O=C(/C=C(\[O-])c1ccccc1)CCCCCCC(=O)/C=C(\[O-])c1ccccc1.O=C(/C=C(\[O-])c1ccccc1)CCCCCCC(=O)/C=C(\[O-])c1ccccc1.O=C(/C=C(\[O-])c1ccccc1)CCCCCCC(=O)/C=C(\[O-])c1ccccc1.[Y+3].[Y+3],> 50 µM,> 50 µM,> 50 µM,> 50 µM,> 50 µM,> 50 µM,,25.7 µM,26.9 µM,,> 50 µM,> 50 µM,47.3 µM,13.4 µM
CCCCCNC(=O)CCCCCCCCCCCNC(=O)CCCCCCCCCCN1C=CC(=CC=C2C=CC(=O)C=C2)C=C1,> 100 µM,> 100 µM,> 100 µM,> 100 µM,28.6 µM,> 100 µM,,,,,,,,
